Data reported in article PMC3280530, “Marine Compounds Selectively Induce Apoptosis in Female Reproductive Cancer Cells but Not in Primary-Derived Human Reproductive Granulosa Cells” (Marine Drugs, 2012).
Read-outs that look alike come from different tables or passages of the source.

Tests used:
[1] = tested on: caspase-3 and -7 in the Jurkat cell line; parameters: method as in PMID 17088067; details: after 5 h; cited from earlier work
[2] = tested on: MCF-7 breast carcinoma cells; parameters: method as in PMID 19491143; details: MCF-7, 4 h exposure, tyrindoleninone in an impure extract; read-out: concentration giving 50% reduction in cell viability; cited from earlier work
[3] = tested on: primary-derived human reproductive granulosa cells (HGC); assay: LDH membrane integrity assay (necrosis); type: cell-based
Protocol: (§1) The primary-derived granulosa cells, along with the KGN, JAr and OVCAR-3 cell lines (10,000 cells per well) were plated into sterile white (opaque) 96-well plates (Interpath) and clear sterile 96-well plates (Interpath) in 0.1 mL per well of complete cell culture medium for 24 h (granulosa, KGN and OVCAR-3 cells) and 2 h (for JAr cells) to allow cell adherence. Standard curves of 0–40,000 cells per well (primary granulosa cells) and 0–80,000 cells per well (for KGN, JAr and OVCAR-3 cells) in six replicate wells were plated into clear 96-well plates, alongside the test plates. After the initial cell adherence period, spent media (media deficient of nutrients and serum) were discarded and primary-derived granulosa, KGN, JAr and OVCAR-3 cells were treated with the two D. orbita fractions at concentrations of 0.005, 0.01, 0.05, 0.1, and 0.5 mg/mL in a final volume of 0.1 mL per well in triplicate wells, for 4 and 24 h at 37 °C + 5% CO2. 1 h prior to the end of eachincubation period two positive controls were added; one for apoptosis (1 μg/mL DNase I), and the second for necrosis (2 μL per well of a cell lysis buffer; Promega). This experiment was repeated on three separate occasions (n = 3).
(§2) After 4 and 24 h exposure to the D. orbita fractions in opaque 96-well plates, a combined membrane integrity and caspase 3/7 assay were performed on the primary-derived granulosa cells and KGN cells. The CytoTox-ONE Homogeneous Membrane Integrity Assay kit (Promega) was applied according to the manufacturer’s instructions. After the fluorescence was read at 535EX/590EM, the Caspase-Glo 3/7® assay (Promega) was applied to the primary granulosa cells and KGN cells according to the manufacturer’s instructions for1h and the plates were read on full light to capture total luminescence. The LDH-membrane integrity assay alone was performed on the JAr and OVCAR-3 cells using the CytoTox-ONE Homogeneous Membrane Integrity Assay kit (Promega). This assay was repeated on three separate occasions (n = 3).

OVCAR-3 cells [4] = assay: Crystal violet cell viability assay; type: cell-based; details: Homo sapiens, OVCAR-3, crystal violet
Protocol: (§3) For cell assays, the D. orbita fractions were prepared fresh on the day of the experiment by dissolving in dimethyl sulfoxide (DMSO; 100%) at 100× the final concentration. These were diluted to a range of working concentrations (0.001–0.5 mg/mL) in complete cell assay medium to give a final working concentration per well of 1% DMSO. All samples were filtered through a […] (Sartorius) filter before use.
as §1
(§4) After 4 and 24 h exposure to D. orbita fractions in clear 96-well plates, media and all dead unattached cells were removed. The remaining adherent cells were rinsed with sterile 1× PBS and the crystal violet assay was performed. The crystal violet assay is a colourmetric assay in which only the nuclei of live cells take up the crystal violet stain (0.5%). The absorbance in the wells of the crystal violet plates were read on an automatic spectrophotometer at 570 nm, with reference absorbance 630 nm using KC Junior Software. This assay was repeated on three separate occasions (n = 3).

JAr cells [5] = assay: Crystal violet cell viability assay; type: cell-based; details: Homo sapiens
Protocol: as §3, §1, §4

[6] = tested on: primary-derived human reproductive granulosa cells (HGC); assay: Crystal violet cell viability assay; type: cell-based
Protocol: as §3, §1, §4

KGN cells [7] = assay: Crystal violet cell viability assay; type: cell-based; details: Homo sapiens
Protocol: as §3, §1, §4

U937 lymphoma cell line = details: U937, 4 h exposure, tyrindoleninone in an impure extract; read-out: concentration giving 50% reduction in cell viability; cited from earlier work
[8] = tested on: CaCo2 colon carcinoma cells; parameters: method as in PMID 19491143; details: CaCo2, 4 h exposure, tyrindoleninone in an impure extract; read-out: concentration giving 50% reduction in cell viability; cited from earlier work
[9] = tested on: untransformed human mononuclear cells (MNC); parameters: method as in PMID 19491143, PMID 17088067; details: in vitro, cited from earlier work
[10] = tested on: primary-derived human reproductive granulosa cells (HGC); assay: TUNEL staining (apoptosis); type: cell-based
Protocol: (§5) Primary-derived human granulosa cells and KGN cells were plated into Nunc Lab-Tek II CC2 Chamber Slides at 30,000 cells per chamber well in a final volume of 0.3 mL of DMEM/F12 + 10% FBS complete cell culture medium and incubated for 24 h at 37 °C + 5% CO2 to allow cell attachment to slides. Spent media (media deficient of nutrients and serum) and non-viable and non-adherent cellswere discarded and replaced with the D. orbita fractions at concentrations of 0.005, 0.01 and 0.05 mg/mL in a final volume of 0.3 mL of DMEM/F12 + 10% medium. A medium-only and a 1% DMSO control were also added before incubation for 4 and 24 h at 37 °C + 5% CO2. This experiment was repeated on three separate occasions (n = 3). The supernatant was removed and the cells rinsed with PBS before fixation with 4% paraformaldehyde for 25 min at room temperature. The DeadEnd™ Fluorometric TUNEL System (Promega) was performed as recommended by the manufacturer. Briefly the cells were treated with 0.2% Triton X-100 for 5 min, to permeablize the cells. The cells were rinsed in PBS before the addition of 50 μL of rTdT incubation buffer (Promega) at 37 °C for 1 h, protected from light. Cells were rinsed in 2× sodium chloride and sodium citratesolution (Promega) for 15 min at room temperature (25 °C) then rinsed again with PBS. The cells were counter-stained with 1 μg/mL propidium iodide (PI). A separate positive control slide of 1 μg/mL DNase I, and a negative control slide of buffer without rTdT, was prepared in conjunction with treatment slides. Cells were examined immediately and photographed at 200 and 400× magnification using a Fluorescence Olympus BX50 Microscope with filter Chroma 31001 at excitation 450–495 nm, Dichroic 505 and emission 515–555 nm for the green fluorescein of TUNEL and Chroma 31002 at excitation 515–550 nm, Dichroic 565 and emission 575–615 nm for the red fluorescence of the PI staining. Photomicrographs of four fields of view were taken for each treatment in each repeat of theassay and the number of TUNEL positive nuclei, stained bright green, were calculated as a fraction of the total number of PI stained nuclei, stained bright red, in each image. The average of the four fields was then calculated.

OVCAR-3 cells [11] = assay: LDH membrane integrity assay (necrosis); type: cell-based, human; details: OVCAR-3, 4 h exposure
Protocol: as §1, §2

JAr cells [12] = assay: LDH membrane integrity assay (necrosis); type: cell-based, human; details: 4 h exposure
Protocol: as §1, §2

KGN cells [13] = assay: LDH membrane integrity assay (necrosis); type: cell-based, human
Protocol: as §1, §2

lymphoma cell = tested on: lymphoma cell; parameters: method as in PMID 17088067; details: 1 h exposure; read-out: concentration giving (predicted) 50% reduction in lymphoma cell viability; cited from earlier work
KGN cells [14] = assay: TUNEL staining (apoptosis); type: cell-based, human
Protocol: as §5

JAr cells [15] = assay: MTT cell viability assay; type: cell-based; details: Homo sapiens
Protocol: as §3, §1
(§6) After 4, 24, 48 and 72 h exposure to D. orbita fractions in clear 96-well plates, media and all dead unattached cells were removed. The remaining adherent cells were rinsed with sterile 1× PBS and the MTT assay was performed. The MTT assay measures the reduction of a yellow substrate to formazan, a purple precipitate, by the mitochondrial succinate dehydrogenase enzymes. A solution of 0.5 mg/mL MTT (was added to wells in a final volume of 0.1 mL. The plates were then incubated for 1 h (JAr cells) and 18 h (KGN, OVCAR-3 and GC cells) at 37 °C and 5% CO2. At the end of the incubation period, 80 μL/well 20% SDS in 0.02 M HCl was added and plate was incubated for a further 1 h at room temperature in the dark. The absorbance was the measured at 570 nm, with reference absorbance 630 nm, using an automatic spectrophotometer using KC Junior software. This assay was repeated on three separate occasions (n = 3).

[16] = tested on: primary-derived human reproductive granulosa cells (HGC); assay: MTT cell viability assay; type: cell-based; details: for IC50: Homo sapiens, HGC, MTT
Protocol: as §3, §1, §6

OVCAR-3 cells [17] = assay: MTT cell viability assay; type: cell-based, human; details: Homo sapiens, OVCAR-3, MTT
Protocol: as §3, §1, §6

KGN cells [18] = assay: MTT cell viability assay; type: cell-based, human; details: Homo sapiens
Protocol: as §3, §1, §6

[19] = tested on: caspase-3 and -7 activity in KGN cells; assay: Caspase-Glo 3/7 assay; type: cell-based, human; details: 4 h treatment
Protocol: as §1, §2

[20] = tested on: caspase-3 and -7 activity in HGC; assay: Caspase-Glo 3/7 assay; type: cell-based, human; details: 4 h treatment
Protocol: as §1, §2

Compound: O=C1Nc2c(cc(Br)c(Br)c2Br)C1=O [5,6,7-tribromoisatin]
- concentration activating caspase-3 and -7 [1]: 8 µM

Compound: CSC1=Nc2cc(Br)ccc2C1=O [Tyrindoleninone, tyrindoleninone]
- IC50 [2]: 391 µM
- LDH released (fluorescence 535EX/590EM) ([3]; 4 h, 1953 µM (0.5 mg/mL)): 876 ± 1084
- concentration required to cause LDH release (necrosis) ([3]; 4 h exposure): 1953 µM
- concentration required to cause LDH release (necrosis) ([3]; 24 h exposure): 1953 µM
- IC50 (OVCAR-3 cells [4]; 4 h): 313 µM
- IC50 (OVCAR-3 cells [4]; 24 h): 352 µM
- IC50 (JAr cells [5]; 4 h): 234 µM
- IC50 (JAr cells [5]; 24 h): 195 µM
- IC50 ([6]; 4 h): > 1950 µM
- IC50 ([6]; 24 h): > 1950 µM
- IC50 (KGN cells [7]; 4 h): 156 µM
- IC50 (KGN cells [7]; 24 h): 156 µM
- IC50 (U937 lymphoma cell line): 391 µM
- IC50 [8]: 391 µM
- IC50 ([9]; 1 h exposure, read-out: IC50): 195 µM
- IC50 [9]: 50 µg/mL
- TUNEL positive cells ([10]; 4 h, 0.05 mg/mL): 31%
- TUNEL labelled cells ([10]; 24 h, 0.005 mg/mL): 16%
- concentration at which necrosis (LDH release) was detected (OVCAR-3 cells [11]): 391 µM
- concentration at which necrosis (LDH release) was detected (JAr cells [12]): 195 µM
- LDH released (fluorescence 535EX/590EM) (KGN cells [13]; 4 h, 1953 µM (0.5 mg/mL)): 1612 ± 771
- concentration required to cause LDH release (necrosis) (KGN cells [13]; 4 h exposure): 1953 µM
- concentration required to cause LDH release (necrosis) (KGN cells [13]; 24 h exposure): 195 µM
- IC50 (lymphoma cell): 4 µM
- TUNEL positive cells (KGN cells [14]; 4 h, 0.05 mg/mL): 66%
- TUNEL labelled cells (KGN cells [14]; 24 h, 0.005 mg/mL): 62%
- IC50 (JAr cells [15]; 4 h): 39 µM
- IC50 (JAr cells [15]; 24 h): 117 µM
- IC50 (JAr cells [15]; 48 h): 78 µM
- IC50 ([16]; 4 h): 3520 µM
- IC50 ([16]; 24 h): 1560 µM
- IC50 ([16]; 48 h): 1560 µM
- IC50 ([16]; 72 h): 1560 µM
- IC50 values fold lower for all three reproductive cancer cell lines than for the HGC ([16]; after 24, 48 and 72 h treatment, KGN, JAr, OVCAR-3 vs HGC): approximately 10 fold
- IC50 (OVCAR-3 cells [17]; OVCAR-3, 4 h, 4 h): 156 µM
- IC50 (OVCAR-3 cells [17]; OVCAR-3, 24 h, 24 h): 234 µM
- IC50 (OVCAR-3 cells [17]; OVCAR-3, 48 h, 48 h): 31 µM
- IC50 (OVCAR-3 cells [17]; OVCAR-3, 72 h, 72 h): < 20 µM
- IC50 (KGN cells [18]; 4 h): 39 µM
- IC50 (KGN cells [18]; 24 h): 78 µM
- IC50 (KGN cells [18]; 48 h): 20 µM
- IC50 (KGN cells [18]; 72 h): < 20 µM
- concentration at which caspase-3 and -7 activity (apoptosis) significantly increased [19]: 20 µM
- concentration at which caspase-3 and -7 activity (apoptosis) was noted [20]: 391 µM
